Data published in US20240208992A1, “MACROCYCLES AS CFTR MODULATORS” (Idorsia Pharmaceuticals Ltd, priority 2021, published 2024).

Target: human F508del-CFTR (Homo sapiens, UniProt P13569, DEL508-508)
Test: F508del-CFTR cell surface expression (corrector activity), DiscoveRx ß-galactosidase complementation chemiluminescence assay in recombinant U2OS cell line;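 also: U2OS cells co-expressing ProLink-tagged F508del-CFTR and a membrane-anchored enzyme acceptor, where more surface CFTR restores β-galactosidase activity measured by chemiluminescence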
Conditions: for EC50: EC50, F508del-CFTR cell surface expression; for Emax: U2OS
[1] = U2OS cells, 16h compound incubation, geomean of several measurements
[2] = in relation to the Emax of the corrector lumacaftor (=100%), U2OS cells, 16h compound incubation, arithmetic mean
[3] = U2OS cell line, 16h compound incubation, geomean values
[4] = in relation to the Emax of the corrector lumacaftor (=100%), U2OS cell line, 16h compound incubation, arithmetic mean values
[5] = U2OS cells, 16h compound incubation, geomean values
[6] = in relation to Emax of corrector lumacaftor (=100%), arithmetic mean values

Chain of human F508del-CFTR (P13569 with tags, fused parts or gaps DEL508-508): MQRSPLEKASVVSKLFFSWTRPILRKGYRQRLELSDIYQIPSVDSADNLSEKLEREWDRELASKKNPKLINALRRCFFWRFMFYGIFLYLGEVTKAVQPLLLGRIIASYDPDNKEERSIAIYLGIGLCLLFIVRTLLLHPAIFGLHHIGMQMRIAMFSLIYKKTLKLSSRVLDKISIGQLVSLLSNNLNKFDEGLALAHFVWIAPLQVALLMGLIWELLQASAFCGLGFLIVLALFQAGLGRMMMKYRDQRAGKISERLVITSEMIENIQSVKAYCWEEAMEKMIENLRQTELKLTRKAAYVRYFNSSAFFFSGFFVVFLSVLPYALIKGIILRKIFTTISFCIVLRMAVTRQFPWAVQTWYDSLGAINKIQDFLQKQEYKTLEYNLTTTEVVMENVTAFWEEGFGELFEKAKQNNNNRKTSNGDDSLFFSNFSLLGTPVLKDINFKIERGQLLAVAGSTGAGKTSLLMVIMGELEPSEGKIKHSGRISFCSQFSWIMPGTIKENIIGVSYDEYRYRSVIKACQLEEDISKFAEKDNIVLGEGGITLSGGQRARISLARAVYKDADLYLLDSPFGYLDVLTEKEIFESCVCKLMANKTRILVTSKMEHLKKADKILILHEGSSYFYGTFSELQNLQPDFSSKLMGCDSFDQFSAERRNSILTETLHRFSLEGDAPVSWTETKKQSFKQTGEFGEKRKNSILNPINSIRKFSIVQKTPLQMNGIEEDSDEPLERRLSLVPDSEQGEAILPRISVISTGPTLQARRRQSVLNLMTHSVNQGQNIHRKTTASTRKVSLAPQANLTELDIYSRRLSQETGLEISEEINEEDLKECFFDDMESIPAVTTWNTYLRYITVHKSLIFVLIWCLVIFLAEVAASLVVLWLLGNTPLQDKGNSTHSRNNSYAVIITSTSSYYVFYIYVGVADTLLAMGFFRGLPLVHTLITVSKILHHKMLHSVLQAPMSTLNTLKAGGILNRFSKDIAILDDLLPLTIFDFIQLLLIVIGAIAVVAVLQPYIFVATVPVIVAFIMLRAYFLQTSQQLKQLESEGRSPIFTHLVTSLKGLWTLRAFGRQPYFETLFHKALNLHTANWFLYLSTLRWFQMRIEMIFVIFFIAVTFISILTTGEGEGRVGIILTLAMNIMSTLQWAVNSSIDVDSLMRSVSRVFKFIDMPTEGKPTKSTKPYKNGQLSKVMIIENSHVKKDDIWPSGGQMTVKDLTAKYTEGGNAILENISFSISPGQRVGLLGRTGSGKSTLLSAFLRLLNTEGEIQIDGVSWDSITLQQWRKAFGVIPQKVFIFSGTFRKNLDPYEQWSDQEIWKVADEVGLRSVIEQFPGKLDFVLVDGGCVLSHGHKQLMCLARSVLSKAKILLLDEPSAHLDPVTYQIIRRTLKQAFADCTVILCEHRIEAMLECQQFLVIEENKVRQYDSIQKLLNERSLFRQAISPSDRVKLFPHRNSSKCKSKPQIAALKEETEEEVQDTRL

EC50 [3] | Emax [4] | Compound | EC50 [5] | Emax [6] | other results
 |  | COc1noc(CCNC(=O)[C@@H]2CC(=O)N(C)[C@@H](CC(C)C)C(=O)N(C)C3(CC3)C(=O)N[C@H](Cc3ccccc3)COc3ccc4ncc(F)cc4c3C(=O)N2)n1 [Example 911, (3′S,7′S,13′R)-13′-benzyl-20′-fluoro-7′-isobutyl-N-(2-(3-methoxy-1,2,4-oxadiazol-5-yl)ethyl)-6′,9′-dimethyl-1′,5′,8′,11′-tetraoxo-2′,3′,4′,5′,6′,7′,8′,9′,11′,12′,13′,14′-dodecahydro-1′H-spiro[cyclopropane-1,10′-[1]oxa[4,7,10,14]tetraazacycloheptadecino[16,17-f]quinoline]-3′-carboxamide] |  |  | EC50 [1]: 531 nM; Emax [2]: 341%
 |  | COc1cccc(CCNC(=O)[C@@H]2CC(=O)N(C)[C@@H](CC(C)C)C(=O)N3CCN(S(=O)(=O)CC4CCOCC4)C[C@@H]3C(=O)N[C@H](Cc3ccccc3)COc3ccc4ccccc4c3C(=O)N2)c1 [Example 746, (4aR,7R,18S,22S)-7-benzyl-22-isobutyl-N-(3-methoxyphenethyl)-21-methyl-5,16,20,23-tetraoxo-3-(((tetrahydro-2H-pyran-4-yl)methyl)sulfonyl)-2,3,4,4a,5,6,7,8,16,17,18,19,20,21,22,23-hexadecahydro-1H-naphtho[1,2-p]pyrazino[2,1-f][1]oxa[4,7,10,14]tetraazacycloheptadecine-18-carboxamide] | 211 nM | 213% | 
776 nM | 237% | Cc1cc(CCNC(=O)[C@@H]2CC(=O)N(C)[C@@H](CC(C)C)C(=O)N(C)C3(CC3)C(=O)N[C@H](Cc3ccccc3)COc3cnc4ccccc4c3C(=O)N2)no1 [Example 117, (3′S,7′S,13′R)-13′-benzyl-7′-isobutyl-6′,9′-dimethyl-N-(2-(5-methylisoxazol-3-yl)ethyl)-1′,5′,8′,11′-tetraoxo-2′,3′,4′,5′,6′,7′,8′,9′,11′,12′,13′,14′-dodecahydro-1′H-spiro[cyclopropane-1,10′-[1]oxa[4,7,10,14]tetraazacycloheptadecino[17,16-c]quinoline]-3′-carboxamide] |  |  | 
 |  | CC(C)C[C@H]1C(=O)N2CCOC[C@@H]2C(=O)N[C@H](Cc2ccccc2)COc2cnc3ccc(F)cc3c2C(=O)N[C@H](C(=O)NCCc2nc(C3CC3)no2)CC(=O)N1C [Example 645, (9S,13S,19aR,22R)-22-benzyl-N-(2-(3-cyclopropyl-1,2,4-oxadiazol-5-yl)ethyl)-5-fluoro-13-isobutyl-12-methyl-7,11,14,20-tetraoxo-7,8,9,10,11,12,13,14,16,17,19,19a,20,21,22,23-hexadecahydro-[1,4]oxazino[3′,4′:6,7][1]oxa[4,7,10,14]tetraazacycloheptadecino[17,16-c]quinoline-9-carboxamide] | 289 nM | 211% | 
 |  | Cc1cc(CCNC(=O)[C@@H]2CC(=O)N(C)[C@@H](CC(C)C)C(=O)N(CC[C@@H]3CCCCO3)CC(=O)N[C@H](Cc3ccccc3)COc3cnc4ccccc4c3C(=O)N2)on1 [Example 446, (3S,7S,13R)-13-benzyl-7-isobutyl-6-methyl-N-(2-(3-methylisoxazol-5-yl)ethyl)-1,5,8,11-tetraoxo-9-(2-((S)-tetrahydro-2H-pyran-2-yl)ethyl)-1,2,3,4,5,6,7,8,9,10,11,12,13,14-tetradecahydro-[1]oxa[4,7,10,14]tetraazacycloheptadecino[17,16-c]quinoline-3-carboxamide] | 900 nM | 248% | 
 |  | COc1cccc(CCNC(=O)[C@@H]2CC(=O)N(C)[C@@H](CC(C)C)C(=O)N3CCCC[C@@H]3C(=O)N[C@H](Cc3ccccc3)COc3cc4oc(C)nc4cc3C(=O)N2)c1 [Example 406, (7S,11S,21R,23aR)-21-benzyl-7-isobutyl-N-(3-methoxyphenethyl)-8,16-dimethyl-6,9,13,23-tetraoxo-1,3,4,6,7,8,9,10,11,12,13,20,21,22,23,23a-hexadecahydro-2H-oxazolo[5′,4′:4,5]benzo[1,2-p]pyrido[2,1-f][1]oxa[4,7,10,14]tetraazacycloheptadecine-11-carboxamide] | 409 nM | 173% | 
313 nM | 331% | Cc1cc(CCNC(=O)[C@@H]2CC(=O)N(C)[C@@H](CC(C)C)C(=O)N(C)C3(CC3)C(=O)N[C@H](Cc3ccccc3)COc3cnc4ccc(F)cc4c3C(=O)N2)no1 [Example 141, (3′S,7′S,13′R)-13′-benzyl-20′-fluoro-7′-isobutyl-6′,9′-dimethyl-N-(2-(5-methylisoxazol-3-yl)ethyl)-1′,5′,8′,11′-tetraoxo-2′,3′,4′,5′,6′,7′,8′,9′,11′,12′,13′,14′-dodecahydro-1′H-spiro[cyclopropane-1,10′-[1]oxa[4,7,10,14]tetraazacycloheptadecino[17,16-c]quinoline]-3′-carboxamide] |  |  | 
 |  | COc1cc(CCNC(=O)[C@@H]2CC(=O)N(C)[C@@H](CC(C)C)C(=O)N(C)[C@H](C)C(=O)N[C@H](Cc3ccccc3)COc3ccnc(OC)c3C(=O)N2)on1 [Example 771, (3R,6R,9S,13S)-3-benzyl-9-isobutyl-16-methoxy-N-(2-(3-methoxyisoxazol-5-yl)ethyl)-6,7,10-trimethyl-5,8,11,15-tetraoxo-2,3,4,5,6,7,8,9,10,11,12,13,14,15-tetradecahydropyrido[3,4-p][1]oxa[4,7,10,14]tetraazacycloheptadecine-13-carboxamide] | 597 nM | 299% | 
 |  | CC(C)C[C@H]1C(=O)N2CCCC[C@@H]2C(=O)N[C@H](Cc2ccccc2)COc2ccc3ncc(F)cc3c2C(=O)N[C@H](C(=O)NCCc2noc(C3CC3)n2)CC(=O)N1C [Example 541, (9S,13S,19aR,22R)-22-benzyl-N-(2-(5-cyclopropyl-1,2,4-oxadiazol-3-yl)ethyl)-5-fluoro-13-isobutyl-12-methyl-7,11,14,20-tetraoxo-7,8,9,10,11,12,13,14,17,18,19,19a,20,21,22,23-hexadecahydro-16H-pyrido[2′,1′:6,7][1]oxa[4,7,10,14]tetraazacycloheptadecino[16,17-f]quinoline-9-carboxamide] | 185 nM | 357% | 
353 nM | 419% | CC(C)C[C@H]1C(=O)N2CCOC[C@@H]2C(=O)N[C@H](Cc2ccccc2)COc2ccc3ccccc3c2C(=O)N[C@H](C(=O)NCCc2ccc3c(c2)OCC3)CC(=O)N1C [Example 42, (4aR,7R,18S,22S)-7-benzyl-N-(2-(2,3-dihydrobenzofuran-6-yl)ethyl)-22-isobutyl-21-methyl-5,16,20,23-tetraoxo-1,2,4,4a,5,6,7,8,16,17,18,19,20,21,22,23-hexadecahydronaphtho[1,2-p][1,4]oxazino[3,4-f][1]oxa[4,7,10,14]tetraazacycloheptadecine-18-carboxamide] |  |  | 
 |  | CC(C)C[C@H]1C(=O)N(C)[C@H](CC2CCCC2)C(=O)N[C@H](Cc2ccccc2)COc2cnc3ccc(F)cc3c2C(=O)N[C@H](C(=O)NCCc2noc(C3CC3)n2)CC(=O)N1C [Example 693, (3S,7S,10R,13R)-13-benzyl-10-(cyclopentylmethyl)-N-(2-(5-cyclopropyl-1,2,4-oxadiazol-3-yl)ethyl)-20-fluoro-7-isobutyl-6,9-dimethyl-1,5,8,11-tetraoxo-1,2,3,4,5,6,7,8,9,10,11,12,13,14-tetradecahydro-[1]oxa[4,7,10,14]tetraazacycloheptadecino[17,16-c]quinoline-3-carboxamide] | 40 nM | 401% | 
 |  | COc1nc(C)nc2c1C(=O)N[C@H](C(=O)NCCc1cc(C3CC3)no1)CC(=O)N(C)[C@@H](CC(C)C)C(=O)N(C)[C@H](C)C(=O)N[C@H](Cc1ccccc1)CO2 [Example 862, (7S,11S,14R,17R)-17-benzyl-N-(2-(3-cyclopropylisoxazol-5-yl)ethyl)-11-isobutyl-4-methoxy-2,10,13,14-tetramethyl-5,9,12,15-tetraoxo-5,6,7,8,9,10,11,12,13,14,15,16,17,18-tetradecahydropyrimido[5,4-p][1]oxa[4,7,10,14]tetraazacycloheptadecine-7-carboxamide] |  |  | EC50 [1]: 921 nM; Emax [2]: 335%
 |  | CC(C)C[C@H]1C(=O)N2CCCC[C@@H]2C(=O)N[C@H](Cc2ccccc2)COc2ccc3ncc(F)cc3c2C(=O)N[C@H](C(=O)NCCn2nnc(C3CC3)n2)CC(=O)N1C [Example 829, (9S,13S,19aR,22R)-22-benzyl-N-(2-(5-cyclopropyl-2H-tetrazol-2-yl)ethyl)-5-fluoro-13-isobutyl-12-methyl-7,11,14,20-tetraoxo-7,8,9,10,11,12,13,14,17,18,19,19a,20,21,22,23-hexadecahydro-16H-pyrido[2′,1′:6,7][1]oxa[4,7,10,14]tetraazacycloheptadecino[16,17-f]quinoline-9-carboxamide] |  |  | EC50 [1]: 142 nM; Emax [2]: 320%

Compound | EC50 [3] | Emax [4] | EC50 [5] | Emax [6] | other results
COc1cccc2c1C(=O)N[C@H](C(=O)NCCc1ccccc1F)CC(=O)N(C)[C@@H](CC(C)C)C(=O)N(CCC1CCCCC1)CC(=O)N[C@H](Cc1ccccc1)CO2 [Example 204, (3R,9S,13S)-3-benzyl-7-(2-cyclohexylethyl)-N-(2-fluorophenethyl)-9-isobutyl-16-methoxy-10-methyl-5,8,11,15-tetraoxo-2,3,4,5,6,7,8,9,10,11,12,13,14,15-tetradecahydrobenzo[p][1]oxa[4,7,10,14]tetraazacycloheptadecine-13-carboxamide] | 198 nM | 173% |  |  | 
COc1cc2c(cc1OC)C(=O)N[C@H](C(=O)NCCc1ccc3c(c1)OCO3)CC(=O)N(C)[C@@H](CC(C)C)C(=O)N(CCC(C)(C)OC)CC(=O)N[C@H](Cc1ccccc1)CO2 (mixture of isomers) [Example 156, (3R,9S,13RS)-N-(2-(benzo[d][1,3]dioxol-5-yl)ethyl)-3-benzyl-9-isobutyl-17,18-dimethoxy-7-(3-methoxy-3-methylbutyl)-10-methyl-5,8,11,15-tetraoxo-2,3,4,5,6,7,8,9,10,11,12,13,14,15-tetradecahydrobenzo[p][1]oxa[4,7,10,14]tetraazacycloheptadecine-13-carboxamide] | 647 nM | 123% |  |  | 
